Assay results from patent US20250332112A1, “IONIZABLE CATIONIC LIPIDS FOR LIPID NANOPARTICLES” (GENEVANT SCIENCES GMBH, priority 2022, published 2025).

Key:
[1] = Parent ionizable lipid remaining in liver at 24 h after EGFP mRNA LNP (LC-MS); format: in vivo; conditions: 24 h after IV 0.5 mg/kg EGFP mRNA LNP, female BALB/c mice (n = 4)
Procedure: Liver tissues were treated with PBS and homogenized with a FastPrep machine, 3 cycles of 5 m/s×15 s. Homogenates from the PBS-treated control animals was pooled and used for standard curve preparation. Samples were extracted into a deep well plate with 250 μL of an internal suitability standard. Plates were centrifuged for 15 min at 4° C. and 2000 rpm. Analysis was performed using an Agilent 6520 QTOF coupled to an Agilent 1290 UHPLC, using reverse-phase LC separation. Quantitation of the ionizable lipid was by MS/MS against a calibration curve spiked into appropriately matched blank matrix. Calibration used a similar class of synthetic lipid as internal standard.
At 24 h post-dose, some treatment groups reported lower levels of novel ionizable lipid in mouse liver compared to the benchmark (Tables 28-31).

[2] = Particle characteristics of LNPs containing EGFP mRNA and novel ionizable lipids; format: physicochemical; conditions: EGFP mRNA LNP 1.6:54.6:32.8:10.9
Procedure: The lipid solution contains 4 components: a PEG-conjugated lipid, an ionizable lipid, cholesterol, and a phospholipid (e.g., DSPC). Lipid stocks were prepared using the lipid identities and molar ratios as described, to achieve a total concentration of ˜7 mg/mL in 100% ethanol. […] Equal volumes of the lipid and nucleic acid solutions were blended at a flow rate of 400 mL/min through a T-connector, and diluted with ˜4 volumes of PBS, pH 7.4. Formulations were placed in Slide-A-Lyzer dialysis units (MWCO 10,000) and dialyzed overnight against 10 mM Tris, 500 mM NaCl, pH 8 buffer. Following dialysis, the formulations were concentrated to ˜0.6 mg/mL using VivaSpin concentrator units (MWCO 100,000) and dialyzed overnight against 5 mM Tris, 10% sucrose, pH 8 buffer. Formulations were filtered through a 0.2 μm syringe filter (PES membrane). Nucleic acid concentration was determined by the RiboGreen assay. Particle size and polydispersity were determined using a Malvern Nano Series Zetasizer.
LNP formulations containing novel ionizable lipids all produced stable particles with high encapsulation efficiency (Tables 20-23).

[3] = test system: EGFP expression in the liver; assay: EGFP expression in liver after intravenous EGFP mRNA LNP (ELISA); conditions: 0.5 mg/kg IV, 24 h post-IV administration, BALB/c mice (n = 4)

Row | Structure (SMILES) | Parent ionizable lipid remaining in liver, Average ([1]; Table 29) [nmol/g liver] | Final Product % EE ([2]; Table 21) [%] | Final Product PDI ([2]; Table 21) | Final Product Z-avg ([2]; Table 21) [nm] | EGFP ([3]; Table 25) [pg/g liver] | Parent ionizable lipid remaining in liver, Average ([1]; Table 30) [nmol/g liver] | Final Product % EE ([2]; Table 22) [%] | Final Product PDI ([2]; Table 22) | Final Product Z-avg ([2]; Table 22) [nm] | EGFP ([3]; Table 26) [pg/g liver] | also measured
1 | CCCCCC/C=C\CCON(C(=O)CCCCN(C)C)C(CCCCCCCCCC)CCCCCCC(=O)OCCC(CCCCCCC)CCCCCCC (stereo not shown) [Compound 98, 3-Heptyldecyl (Z)-8-(N-(dec-3-en-1-yloxy)-5-(dimethylamino)pentanamido)octadecanoate] | 30.21 | 99 | 0.06 | 84 | 9.76E+05 |  |  |  |  |  | 
2 | CCCCCCCCCCN(C(=O)CCCN(C)C)C(CCCCCCCCC)CCCCCCC(F)(F)C(=O)OC(CCCCCCCC)CCCCCCCC (stereo not shown) [Compound 104, Heptadecan-9-yl 9-(N-decyl-4-(dimethylamino)butanamido)-2,2-difluorooctadecanoate] |  |  |  |  |  | 51.14 | 99 | 0.07 | 74 | 7.36E+06 | 
3 | CCCCCCCCCCON(C(=O)CCCCN(C)C)C(CCCCCCCCCC)CCCCCCC(=O)OCCC(CCCCC)CCCCC (stereo not shown) [Compound 95, 3-Pentyloctyl 8-(N-(decyloxy)-5-(dimethylamino)pentanamido)octadecanoate] | 9.44 | 96 | 0.08 | 80 | 8.76E+05 |  |  |  |  |  | 
4 | CCCCCCCCCCC(CCCCCCC(=O)OC(CCCCCCCC)CCCCCCCC)N(CCCCCCC(F)(F)C(=O)OC(CCCCCCCC)CCCCCCCC)C(=O)CCCN(C)C (stereo not shown) [Compound 118, Heptadecan-9-yl 8-(N-(7,7-difluoro-8-(heptadecan-9-yloxy)-8-oxooctyl)-4-(dimethylamino)butanamido)octadecanoate] |  |  |  |  |  | 62.81 | 98 | 0.06 | 83 | 1.86E+07 | 
5 | CCCCCCCCCCN(C(=O)CCCN(C)C)C(CCCCCCCCC)CCCCC(F)(F)C(=O)OC(CCCCC)CCCCC (stereo not shown) [Compound 108, Undecan-6-yl 7-(N-decyl-4-(dimethylamino)butanamido)-2,2-difluorohexadecanoate] |  |  |  |  |  | 3.86 | 95 | 0.07 | 80 | 5.41E+07 | 
6 | CCCCCCCCCCN(C(=O)CCCN(C)C)C(CCCCCCCCC)CCCCCCC(F)C(=O)OC(CCCCCC)CCCCCC (stereo not shown) [Compound 113, Tridecan-7-yl 9-(N-decyl-4-(dimethylamino)butanamido)-2-fluorooctadecanoate] |  |  |  |  |  | 4.68 | 98 | 0.05 | 72 | 3.45E+07 | 
7 | CCCCCCCCCCN(C(=O)CCCN(C)C)C(CCCCCCCCC)CCCCCCC(F)C(=O)OC(CCCCC)CCCCC (stereo not shown) [Compound 112, Undecan-6-yl 9-(N-decyl-4-(dimethylamino)butanamido)-2-fluorooctadecanoate] |  |  |  |  |  | 1.73 | 95 | 0.08 | 82 | 4.78E+07 | 
8 | CCCCCCCCCCN(C(=O)CCCN(C)C)C(CCCCCCCCC)CCCCC(F)C(=O)OC(CCCCCCCC)CCCCCCCC (stereo not shown) [Compound 123, Heptadecan-9-yl 7-(N-decyl-4-(dimethylamino)butanamido)-2-fluorohexadecanoate] |  |  |  |  |  |  |  |  |  |  | Parent ionizable lipid remaining in liver, Average ([1]; Table 31): 10.5 nmol/g liver; Final Product % EE ([2]; Table 23): 99%; Final Product PDI ([2]; Table 23): 0.15; Final Product Z-avg ([2]; Table 23): 73 nm; EGFP ([3]; Table 27): 3.94E+07 pg/g liver
9 | CCCCCCCCCCC(CCCCCCC(=O)OCCC(CCCCCC)CCCCCC)N(CCCCCCCCCC)C(=O)CCCCN1CCCC1 (stereo not shown) [Compound 90, 3-Hexylnonyl 8-(N-decyl-5-(pyrrolidin-1-yl)pentanamido)octadecanoate] |  |  |  |  |  |  |  |  |  |  | Parent ionizable lipid remaining in liver, Average ([1]; Table 28): 13.37 nmol/g liver; Final Product % EE ([2]; Table 20): 99%; Final Product PDI ([2]; Table 20): 0.07; Final Product Z-avg ([2]; Table 20): 79 nm; EGFP ([3]; Table 24): 2.12E+07 pg/g liver
10 | CCCCCCCCCCC(CCCCCCC(=O)OCCC(CCCCCCC)CCCCCCC)N(CCCCCCCCCC)C(=O)CCCCN1CCCC1 (stereo not shown) [Compound 91, 3-Heptyldecyl 8-(N-decyl-5-(pyrrolidin-1-yl)pentanamido)octadecanoate] |  |  |  |  |  |  |  |  |  |  | Parent ionizable lipid remaining in liver, Average ([1]; Table 28): 18.58 nmol/g liver; Final Product % EE ([2]; Table 20): 99%; Final Product PDI ([2]; Table 20): 0.03; Final Product Z-avg ([2]; Table 20): 85 nm; EGFP ([3]; Table 24): 3.15E+07 pg/g liver
11 | CCCCCCCCCCON(C(=O)CCCCN(C)C)C(CCCCCCCCCC)CCCCCCC(=O)OCCC(CCCCCC)CCCCCC (stereo not shown) [Compound 97, 3-Hexylnonyl 8-(N-(decyloxy)-5-(dimethylamino)pentanamido)octadecanoate] | 19.31 | 99 | 0.07 | 85 | 1.48E+06 |  |  |  |  |  | 
12 | CCCCCCCCCCC(CCCCCCC(=O)OCC(CCCCCC)CCCCCCCC)N(CCCCCCCCCC)C(=O)CCN(C)C (stereo not shown) [Compound 107, 2-Hexyldecyl 8-(N-decyl-3-(dimethylamino)propanamido)octadecanoate] |  |  |  |  |  | 28.74 | 98 | 0.06 | 76 | 3.66E+07 | 
13 | CCCCCC/C=C\CCON(C(=O)CCCN(C)C)C(CCCCCCCCCC)CCCCCCC(=O)OCCC(CCCCC)CCCCC (stereo not shown) [Compound 100, 3-Pentyloctyl (Z)-8-(N-(dec-3-en-1-yloxy)-4-(dimethylamino)butanamido)octadecanoate] | 5.03 | 98 | 0.08 | 72 | 5.98E+05 |  |  |  |  |  | 
14 | CCCCCCCCCCC(CCCCCCC(=O)OCCC(CCCCC)CCCCC)N(CCCCCCCCCC)C(=O)CCCCN1CCCC1 (stereo not shown) [Compound 89, 3-Pentyloctyl 8-(N-decyl-5-(pyrrolidin-1-yl)pentanamido)octadecanoate] |  |  |  |  |  |  |  |  |  |  | Parent ionizable lipid remaining in liver, Average ([1]; Table 28): 4.32 nmol/g liver; Final Product % EE ([2]; Table 20): 99%; Final Product PDI ([2]; Table 20): 0.03; Final Product Z-avg ([2]; Table 20): 83 nm; EGFP ([3]; Table 24): 2.01E+07 pg/g liver
15 | CCCCCCCCCCN(C(=O)CCCN(C)C)C(CCCCCCCCC)CCCCC(F)C(=O)OC(CCCCCCC)CCCCCCC (stereo not shown) [Compound 122, Pentadecan-8-yl 7-(N-decyl-4-(dimethylamino)butanamido)-2-fluorohexadecanoate] |  |  |  |  |  |  |  |  |  |  | Parent ionizable lipid remaining in liver, Average ([1]; Table 31): 6.3 nmol/g liver; Final Product % EE ([2]; Table 23): 100%; Final Product PDI ([2]; Table 23): 0.13; Final Product Z-avg ([2]; Table 23): 70 nm; EGFP ([3]; Table 27): 2.35E+07 pg/g liver
16 | CCCCCCCCCCN(C(=O)CCCN(C)C)C(CCCCCCCCC)CCCCC(F)(F)C(=O)OCCC(CCCCCC)CCCCCC (stereo not shown) [Compound 103, 3-Hexylnonyl 7-(N-decyl-4-(dimethylamino)butanamido)-2,2-difluorohexadecanoate] | 0.00 | 98 | 0.09 | 67 | 9.54E+04 |  |  |  |  |  | 
17 | CCCCCCCCCCN(C(=O)CCCN(C)C)C(CCCCCCCCC)CCCCCCC(F)(F)C(=O)OC(CCCCCCC)CCCCCCC (stereo not shown) [Compound 93, Pentadecan-8-yl 9-(N-decyl-4-(dimethylamino)butanamido)-2,2-difluorooctadecanoate] | 24.61 | 98 | 0.02 | 69 | 1.77E+05 |  |  |  |  |  | 
